33 compounds from patent publication US9221822B2, “Thiazolopyrimidine modulators as immunosuppressive agents” (Katholieke Universiteit Leuven, K.U.Leuven R&D, priority 2009, dated 2015) can be followed below.

One may read the IC50 as the concentration at which inhibition is half-maximal. High values mean weaker potency in that assay, low ones greater potency in that assay.

SMILES strings stand for the structures. Bounds are passed on as bounds.

For the first experiment, the system named is Human peripheral blood mononuclear cells (PBMCs) as Responder cells, RPMI 1788 Stimulator cells. Kind of experiment: Mixed Lymphocyte Reaction (MLR) test. The following applies: Homo sapiens, RPMI-1788, lowest concentration giving 50% inhibition of the MLR; 6 days coculture, 3H-thymidine incorporation. The class given is cell-based. In outline:
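Human PBMC responders (0.12×10^6) were cocultured 6 days with mitomycin C-treated RPMI 1788 stimulators (0.045×10^6) and compound in RPMI 1640 with 10% FCS, in triplicate. A ^3H-thymidine pulse on day 5, harvested 18 h later, measured proliferation (cpm), converted to % inhibition versus a compound-free MLR.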
On the technique in general: Incorporation of labelled thymidine or its analogues reports DNA synthesis.
`COc1ccc(OCC(=O)N2CCN(c3nc(N)nc4sc(-c5cccnc5)nc34)CC2)cc1` [Example 271, 1-(4-(5-amino-2-(pyridin-3-yl)thiazolo[5,4-d]pyrimidin-7-yl)piperazin-1-yl)-2-(4-methoxyphenoxy)ethanone] returned an IC50 of 12 nM. In turn, `Nc1nc(N2CCN(C(=O)COc3ccc(F)cc3)CC2)c2nc(-c3cccnc3)sc2n1` [Example 272, 1-(4-(5-amino-2-(pyridin-3-yl)thiazolo[5,4-d]pyrimidin-7-yl)piperazin-1-yl)-2-(4-fluorophenoxy)ethanone] displayed an IC50 of 12 nM. In other words, the double-digit nanomolar range. Turning to `Nc1nc(N2CCN(C(=O)COc3ccc(OC(F)(F)F)cc3)CC2)c2nc(-c3cccnc3)sc2n1` [Example 273, 1-(4-(5-amino-2-(pyridin-3-yl)thiazolo[5,4-d]pyrimidin-7-yl)piperazin-1-yl)-2-(4-trifluoromethoxyphenoxy)ethanone], the half-inhibitory concentration (IC50) was 45 nM.

Compound `CC(C)(Oc1ccc(Cl)cc1)C(=O)N1CCN(c2nc(N)nc3sc(-c4cccnc4)nc23)CC1` [Example 274, 1-(4-(5-amino-2-(pyridin-3-yl)thiazolo[5,4-d]pyrimidin-7-yl)piperazin-1-yl)-2-(4-chlorophenoxy)-2-methylpropan-1-one] returned a half-inhibitory concentration (IC50) greater than 10000 nM. `Cc1cccc(OCC(=O)N2CCN(c3nc(N)nc4sc(-c5cccnc5)nc34)CC2)c1` [Example 275, 1-(4-(5-amino-2-(pyridin-3-yl)thiazolo[5,4-d]pyrimidin-7-yl)piperazin-1-yl)-2-(m-tolyloxy)ethanone] yielded an IC50 of 3 nM. Same read-out and setting: for `Cc1cccc(NC(=O)N2CCN(c3nc(N)nc4sc(-c5cccnc5)nc34)CC2)c1` [Example 276, 4-(5-amino-2-(pyridin-3-yl)thiazolo[5,4-d]pyrimidin-7-yl)-N-m-tolylpiperazine-1-carboxamide] the value was 1 nM; for `Nc1nc(N2CCN(C(=O)Nc3ccc(Cl)cc3)CC2)c2nc(-c3cccnc3)sc2n1` [Example 277, 4-(5-amino-2-(pyridin-3-yl)thiazolo[5,4-d]pyrimidin-7-yl)-N-(4-chlorophenyl)piperazine-1-carboxamide], 24 nM. On to `COc1ccc(CNC(=O)N2CCN(c3nc(N)nc4sc(-c5cccnc5)nc34)CC2)cc1` [Example 278, 4-(5-amino-2-(pyridin-3-yl)thiazolo[5,4-d]pyrimidin-7-yl)-N-(4-methoxybenzyl)piperazine-1-carboxamide], for which half-maximal inhibition (IC50) was put at 80 nM.

With `N#Cc1ccc(NC(=O)N2CCN(c3nc(N)nc4sc(-c5cccnc5)nc34)CC2)cc1` [Example 279, 4-(5-amino-2-(pyridin-3-yl)thiazolo[5,4-d]pyrimidin-7-yl)-N-(4-cyanophenyl)piperazine-1-carboxamide], the IC50 is 100 nM.

For the compound `Nc1nc(N2CCN(C(=O)COc3ccc(Cl)cc3)CC2)c2nc(-c3ccncc3)sc2n1` [Example 281, 1-(4-(5-amino-2-(pyridin-4-yl)thiazolo[5,4-d]pyrimidin-7-yl)piperazin-1-yl)-2-(4-chlorophenoxy)ethanone], the IC50 worked out at 41 nM. Take `Nc1nc(N2CCN(C(=O)COc3ccc(Cl)cc3)CC2)c2nc(-c3ccccn3)sc2n1` [Example 282, 1-(4-(5-amino-2-(pyridin-2-yl)thiazolo[5,4-d]pyrimidin-7-yl)piperazin-1-yl)-2-(4-chlorophenoxy)ethanone]: the half-inhibitory concentration (IC50) is 229 nM. Compared with the last compound, the IC50 is about 5.6-fold higher. On to `Nc1nc(N2CCN(C(=O)COc3ccc(Cl)cc3)CC2)c2nc(CCCc3ccc(F)cc3)sc2n1` [Example 290, 1-(4-(5-amino-2-(3-(4-fluorophenyl)propyl)thiazolo[5,4-d]pyrimidin-7-yl)piperazin-1-yl)-2-(4-chlorophenoxy)ethanone], for which 960 nM corresponded to half-maximal inhibition (IC50). The same measure, in the same setting: for `COc1ccc(OCC(=O)N2CCN(c3nc(N)nc4sc(CCCc5ccc(F)cc5)nc34)CC2)cc1` [Example 291, 1-(4-(5-amino-2-(3-(4-fluorophenyl)propyl)thiazolo[5,4-d]pyrimidin-7-yl)piperazin-1-yl)-2-(4-methoxyphenoxy)ethanone] the value was 1110 nM; for `Nc1nc(N2CCN(C(=O)COc3ccc(Cl)cc3)CC2)c2nc(CCCCc3ccc(F)cc3)sc2n1` [Example 292, 1-(4-(5-amino-2-(4-(4-fluorophenyl)butyl)thiazolo[5,4-d]pyrimidin-7-yl)piperazin-1-yl)-2-(4-chlorophenoxy)ethanone], 920 nM. Compound `COc1ccc(OCC(=O)N2CCN(c3nc(N)nc4sc(CCCCc5ccc(F)cc5)nc34)CC2)cc1` [Example 293, 1-(4-(5-amino-2-(4-(4-fluorophenyl)butyl)thiazolo[5,4-d]pyrimidin-7-yl)piperazin-1-yl)-2-(4-methoxyphenoxy)ethanone] gave a half-maximal inhibitory concentration (IC50) of 930 nM. This IC50 and that of the compound before are within 1.5-fold of each other. In the case of `COc1ccc(OCC(=O)N2CCN(c3nc(N)nc4sc(-c5ccc(C)cc5)nc34)CC2)cc1` [Example 294, 1-(4-(5-amino-2-p-tolylthiazolo[5,4-d]pyrimidin-7-yl)piperazin-1-yl)-2-(4-methoxyphenoxy)ethanone], inhibition was half-maximal at 750 nM (IC50). Regarding `Cc1ccc(-c2nc3c(N4CCN(C(=O)COc5ccc(Cl)cc5)CC4)nc(N)nc3s2)cc1` [Example 295, 1-(4-(5-amino-2-p-tolylthiazolo[5,4-d]pyrimidin-7-yl)piperazin-1-yl)-2-(4-chlorophenoxy)ethanone], inhibition was half-maximal at 350 nM (IC50). This IC50 lies about 2.1-fold lower than the previous one. Compound `CCCCCc1nc2c(N3CCN(C(=O)COc4ccc(OC)cc4)CC3)nc(N)nc2s1` [Example 296, 1-(4-(5-amino-2-pentylthiazolo[5,4-d]pyrimidin-7-yl)piperazin-1-yl)-2-(4-methoxyphenoxy)ethanone] registered a half-inhibitory concentration (IC50) of 7590 nM. For the compound `CCCCCc1nc2c(N3CCN(C(=O)COc4ccc(Cl)cc4)CC3)nc(N)nc2s1` [Example 297, 1-(4-(5-amino-2-pentylthiazolo[5,4-d]pyrimidin-7-yl)piperazin-1-yl)-2-(4-chlorophenoxy)ethanone], it took 690 nM to reach half-maximal inhibition (IC50). `COc1ccc(OCC(=O)N2CCN(c3nc(N)nc4sc(CCc5ccc(Br)cc5)nc34)CC2)cc1` [Example 298, 1-(4-(5-amino-2-(4-bromophenethyl)thiazolo[5,4-d]pyrimidin-7-yl)piperazin-1-yl)-2-(4-methoxyphenoxy)ethanone] showed an IC50 of 1190 nM. On to `Nc1nc(N2CCN(C(=O)COc3ccc(Cl)cc3)CC2)c2nc(CCc3ccc(Br)cc3)sc2n1` [Example 299, 1-(4-(5-amino-2-(4-bromophenethyl)thiazolo[5,4-d]pyrimidin-7-yl)piperazin-1-yl)-2-(4-chlorophenoxy)ethanone], for which the concentration for half-maximal inhibition (IC50) was 3110 nM.

With `COc1ccc(OCC(=O)N2CCN(c3ncnc4sc(-c5ccc(F)cc5)nc34)CC2)cc1` [Example 300, 1-(4-(2-(4-fluorophenyl)thiazolo[5,4-d]pyrimidin-7-yl)piperazin-1-yl)-2-(4-methoxyphenoxy)ethanone], it took 5530 nM to reach half-maximal inhibition (IC50). This IC50 is about 1.8-fold higher than that of the compound before. The same measure, in the same setting: for `O=C(COc1ccc(Cl)cc1)N1CCN(c2ncnc3sc(-c4ccc(F)cc4)nc23)CC1` [Example 301, 1-(4-(2-(4-fluorophenyl)thiazolo[5,4-d]pyrimidin-7-yl)piperazin-1-yl)-2-(4-chlorophenoxy)ethanone] the value was 670 nM. `O=C(COc1ccc(Cl)cc1)N1CCN(c2ncnc3sc(CCc4ccc(F)cc4)nc23)CC1` [Example 303, 1-(4-(2-(4-fluorophenethyl)thiazolo[5,4-d]pyrimidin-7-yl)piperazin-1-yl)-2-(4-chlorophenoxy)ethanone] displayed an IC50 of 5590 nM.

In the case of `O=C(COc1ccc(Cl)cc1)N1CCN(c2ncnc3sc(-c4ccc(F)cc4)cc23)CC1` [Example 312, 2-(4-chlorophenoxy)-1-(4-(6-(4-fluorophenyl)thieno[2,3-d]pyrimidin-4-yl)piperazin-1-yl)ethanone], half-maximal inhibition (IC50) required 6350 nM. This IC50 and that of the compound before are within 1.5-fold of each other. The compound `CCCCc1nc(N2CCN(C(=O)COc3ccc(Cl)cc3)CC2)c2cc(-c3ccc(F)cc3)sc2n1` [Example 313, 1-(4-(2-butyl-6-(4-fluorophenyl)thieno[2,3-d]pyrimidin-4-yl)piperazin-1-yl)-2-(4-chlorophenoxy)ethanone] had an IC50 of 1330 nM. `Cc1nc(N2CCN(C(=O)COc3ccc(Cl)cc3)CC2)c2cc(-c3ccc(F)cc3)sc2n1` [Example 325, 2-(4-chlorophenoxy)-1-(4-(6-(4-fluorophenyl)-2-methylthieno[2,3-d]pyrimidin-4-yl)piperazin-1-yl)ethanone] displayed an IC50 of 3390 nM.

As for `Nc1nc(N2CCN(C(=O)COc3ccc(Cl)cc3)CC2)c2cc(-c3ccc(F)cc3)sc2n1` [Example 326, 1-(4-(2-amino-6-(4-fluorophenyl)thieno[2,3-d]pyrimidin-4-yl)piperazin-1-yl)-2-(4-chlorophenoxy)ethanone], 700 nM corresponded to half-maximal inhibition (IC50). Turning to `Nc1nc(N2CCN(C(=O)COc3ccc(Cl)cc3)CC2)c2cc(-c3ccccc3)sc2n1` [Example 329, 1-(4-(2-amino-6-phenylthieno[2,3-d]pyrimidin-4-yl)piperazin-1-yl)-2-(4-chlorophenoxy)ethanone], the IC50 was found to be 330 nM.

On to `Cc1cccc(NC(=O)N2CCN(c3nc(N)nc4sc(-c5ccccc5)cc34)CC2)c1` [Example 330, 4-(2-amino-6-phenylthieno[2,3-d]pyrimidin-4-yl)-N-m-tolylpiperazine-1-carboxamide], for which inhibition was half-maximal at 930 nM (IC50). Against the preceding compound, the IC50 is about 2.8-fold higher.

Turning to `Nc1nc(N2CCN(C(=O)Nc3ccc(Cl)cc3)CC2)c2cc(-c3ccccc3)sc2n1` [Example 331, 4-(2-amino-6-phenylthieno[2,3-d]pyrimidin-4-yl)-N-(4-chlorophenyl)piperazine-1-carboxamide], inhibition was half-maximal at 6700 nM (IC50).

Staying with this experiment, now noted: lowest concentration giving 50% inhibition of the MLR; 6 days coculture, 3H-thymidine incorporation.
Compound `COc1ccc(OCC(=O)N2CCN(c3nc(N)nc4sc(-c5ccc(Cl)cc5)nc34)CC2)cc1` [Example 280, 1-(4-(5-amino-2-(4-chlorophenyl)thiazolo[5,4-d]pyrimidin-7-yl)piperazin-1-yl)-2-(4-methoxyphenoxy)ethanone] displayed a concentration for half-maximal inhibition (IC50) greater than 10000 nM. Same read-out and setting: for `Nc1nc(NCc2ccccc2)c2cc(-c3ccc(F)cc3)sc2n1` [Example 327, 2-amino-4-N-benzylamino-6-(4-fluorophenyl)-thieno[2,3-d]pyrimidine] the value was 6800 nM.
